How the values were obtained:
[1] = tested on: E. coli DH5a; test: Antibiotic coating and penetration of corn kernels (E. coli growth on LB plates); type: cell-based, Escherichia coli; conditions: kernels soaked 1.5 hours in 2.5 or 0.25 mg/ml ciprofloxacin
[2] = tested on: Sitophilus zeamais weevils; test: Weevil survival; type: in vivo; conditions: adult mating pairs; 250 μg/ml or 2.5 mg/ml ciprofloxacin; 18 days
Procedure: (§1) Sitophilus maize weevils (Sitophilus zeamais) were reared on organic corn at 27.5° C. and 70% relative humidity. Prior to being used for weevil rearing, corn was frozen for 7 days and then tempered to 10% humidity with sterile water. […] Ciprofloxacin (Sigma) stock solutions were made at 25 mg/ml in 0.1 N HCl, sterilized by passing through a 0.22 μm syringe filter, and stored at −20° C. For treatments, the appropriate amount of stock solution was diluted in sterile water.
(§2) Weevil survival was monitored daily for 18 days, after which DNA was extracted from the remaining weevils in each group. Briefly, the weevil body was surface sterilized by dipping the weevil into a 6% bleach solution for approximately 5 seconds. Weevils were then rinsed in sterile water and DNA was extracted from each individual […] using a DNA extraction kit (Qiagen, DNeasy kit) according to manufacturer's instructions. […]; SEQ ID NO: 245). […]; SEQ ID NO: 247) (Login et al., 2011). qPCR was performed using a qPCR amplification ramp of 1.6 degrees C./s and the following conditions: 1) 95° C. for 10 minutes, 2) 95° C. for 15 seconds, 3) 57° C. for 30 seconds, 4) repeat steps 2-3 40×, 5) 95° C. for 15 seconds, 6) 55° C. for 1 minute, 7) ramp change to 0.15 degrees C./s, 8) 95° C. for 1 second. qPCR data was analyzed using analytic (Thermo Fisher Scientific, QuantStudio Design and Analysis) software.

[3] = tested on: Sitophilus primary endosymbiont (SPE, Candidatus Sodalis pierantonius); test: SPE levels in weevils by qPCR; type: in vivo, Sitophilus zeamais; conditions: for SPE amount, fold higher in water-treated than in treated weevils: F0 adults, 18 days
Procedure: as §1, §2

[4] = tested on: Sitophilus zeamais weevils; test: Weevil reproduction (emergence of F1 offspring); conditions: 2.5 mg/ml ciprofloxacin; till day 43
[5] = tested on: Buchnera; test: Buchnera/aphid DNA copy number by qPCR; type: in vivo, Acyrthosiphon pisum
[6] = tested on: Acyrthosiphon pisum aphids; test: Aphid survival monitored daily; type: in vivo
[7] = tested on: Acyrthosiphon pisum aphids; test: Aphid fecundity (offspring counts); type: in vivo; conditions: eNASCO, control approximately 7
Procedure: In addition, the developmental stage (1st, 2nd, 3rd, 4th, 5th instar) was determined daily throughout the experiment. Once an aphid reached the 4th instar stage, they were given their own artificial feeding system in a deep petri dish so that fecundity could be monitored once they reached adulthood.
For adult aphids, new nymphs were counted daily and then discarded. At the end of the experiments, fecundity was determined as the mean number of offspring produced daily once the aphid reached adulthood. Pictures of aphids were taken throughout the experiment to evaluate size differences between treatment groups.
In addition, the developmental stage (1st, 2nd, 3rd, 4th, 5th, and 5R (5th that has reproduced) instar) was determined daily throughout the experiment. Once an aphid reached the 4th instar stage, they were given their own artificial feeding system in a deep petri dish so that fecundity could be monitored once they reached adulthood.
For adult aphids, new nymphs were counted daily and then discarded. At the end of the experiments, fecundity was measured in two ways: 1) the mean day at which the first offspring for the treatment group was determined and 2) the mean number of offspring produced daily once the aphid reached adulthood. […]
In addition, the developmental stage (1st, 2nd, 3rd, 4th, 5th instar) was determined daily throughout the experiment. […]

[8] = tested on: Anopheles coluzzii mosquitoes; test: Mosquito survival after azithromycin blood meals; type: in vivo; conditions: blood meals with 0.1, 1 or 5 μg/ml azithromycin; vs negative control
[9] = tested on: Asaia; test: Asaia quantification by qPCR in mosquito midguts; type: in vivo, Anopheles coluzzii; conditions: blood meals with 0.1, 1 or 5 μg/ml azithromycin, three meals; vs control
[10] = LSR-1, through plants, artificial diet without essential amino acids + 100 μg/ml rifampicin

O=C(O)c1cn(C2CC2)c2cc(N3CCNCC3)c(F)cc2c1=O [ciprofloxacin]
bacterial growth on plate with entire soaked corn kernel [1]: no bacteria grew
weevil survival [2]: all weevils remained alive
SPE amount, fold higher in water-treated than in treated weevils ([3]; 250 ug/ml ciprofloxacin): approximately 4 fold
SPE amount, fold higher in water-treated than in treated weevils ([3]; 2.5 mg/ml ciprofloxacin): ~8 fold
SPE levels, fold higher in water-treated than in treated F1 weevils ([3]; F1 weevils dissected from kernels, 2.5 mg/ml ciprofloxacin): approximately 4 fold
F1 offspring emerged [4]: much less offspring

Cc1cc2c(C(C)C)c(O)c(O)c(C=O)c2c(O)c1-c1c(C)cc2c(C(C)C)c(O)c(O)c(C=O)c2c1O [gossypol, gossypol acetic acid]
Buchnera/aphid DNA copies, fold less than control ([5]; through plants, 0.25 and 0.5% gossypol, 5 or 13 days): ~4 fold
time after which aphids began dying ([6]; through plants, 0.5% gossypol): 2 days

CC(C)(CO)[C@@H](O)C(=O)NCCCO [pantothenol]
Buchnera/aphid DNA copy number ([5]; eNASCO, 10 or 100 uM pantothenol, 8 days): does not affect Buchnera/aphid DNA copy number directly
mean number of offspring per day ([7]; 10 uM pantothenol): approximately 4 offspring/day
mean number of offspring per day ([7]; 100 uM pantothenol): ~5 offspring/day
survival rate of aphids ([6]; eNASCO, leaf coating, 10 uM pantothenol, p=0.0019): lower survival rates than aphids placed on coated leaves with the control solution
survival rate of aphids ([6]; eNASCO, through plants, 10 or 100 uM pantothenol): negatively affected aphid fitness

CC(=O)CCC(=O)O [levulinic acid]
Buchnera/aphid DNA copies, fold less than control ([5]; eNASCO, 0.03 or 0.3% levulinic acid in water, 7 days): ~6 fold
survival of aphids ([6]; eNASCO, 0.3% levulinic acid, 11-day experiment): survival was significantly less

CC[C@H]1OC(=O)[C@H](C)[C@@H](O[C@H]2C[C@@](C)(OC)[C@@H](O)[C@H](C)O2)[C@H](C)[C@@H](O[C@@H]2O[C@H](C)C[C@H](N(C)C)[C@H]2O)[C@](C)(O)C[C@@H](C)CN(C)[C@H](C)[C@@H](O)[C@]1(C)O [azithromycin]
survival rate of mosquitoes [8]: decreased compared to the control
Asaia specific genes (16S rDNA relative to S7, qPCR) [9]: reduction of Asaia specific genes

CO[C@H]1/C=C/O[C@@]2(C)Oc3c(C)c(O)c4c(O)c(c(/C=N/N5CCN(C)CC5)c(O)c4c3C2=O)NC(=O)/C(C)=C\C=C\[C@H](C)[C@H](O)[C@@H](C)[C@@H](O)[C@@H](C)[C@H](OC(C)=O)[C@@H]1C [rifampicin]
Buchnera/aphid DNA copies, fold less than control ([5]; LSR-1, through plants, 100 μg/ml rifampicin, 7 days): ~4 fold
time after which aphids began dying [6, 10]: 1 days
time by which all aphids succumbed to treatment [6, 10]: ≤ 9 days

O=C/C=C/c1ccccc1 [trans-cinnemaldehyde]
Buchnera/aphid DNA copies, fold less than control ([5]; LSR-1, 0.5 and 5% trans-cinnemaldehyde, 3 days): ~870 fold
survival rates of aphids ([6]; LSR-1, 0.05%, 0.5%, and 5% trans-cinnemaldehyde, vs water): significantly lower

Source: patent publication US12018049B2, “Compositions and related methods for controlling vector-borne diseases” (priority 2017, dated 2024)
